From patent US11384055B2 (BIOMARIN PHARMACEUTICAL INC., priority 2017, dated 2022)

biological target: T1, Human GO (Homo sapiens, UniProt Q9UJM8); assay: GO enzymatic assay (coupled fluorescence/HRP assay, glycolate substrate); type: biochemical; settings: Table 1; read-out: Range (range of IC50 values calculated from the enzymatic assays)
T1 construct: purchased Novus Biologicals NBP1-72412
T1 sequence (Q9UJM8 1-370): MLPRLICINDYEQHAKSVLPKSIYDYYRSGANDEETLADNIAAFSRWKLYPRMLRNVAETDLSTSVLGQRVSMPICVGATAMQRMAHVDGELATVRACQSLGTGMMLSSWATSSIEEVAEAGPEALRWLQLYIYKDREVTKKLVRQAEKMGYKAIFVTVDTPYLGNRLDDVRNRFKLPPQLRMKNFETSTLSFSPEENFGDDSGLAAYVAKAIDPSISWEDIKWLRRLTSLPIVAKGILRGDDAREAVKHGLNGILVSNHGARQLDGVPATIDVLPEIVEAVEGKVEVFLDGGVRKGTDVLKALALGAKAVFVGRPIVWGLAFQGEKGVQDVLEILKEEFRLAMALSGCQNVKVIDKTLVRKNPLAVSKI
Method: Assay 1: GO Enzymatic Assay
GO was incubated with its substrate, glycolate, in 50 mM potassium phosphate buffer, pH 7. […] The enzyme was optimized and the kinetics was determined.
Compound inhibition was determined by adding various concentrations of inhibitors in the GO enzyme assay. The IC50 value for each measured compound was generated from sigmoidal dose-response (variable slope) curves with GraphPad Prism software (GraphPad Software, Inc., San Diego, Calif.) using the percent inhibition of GO activity relative to DMSO control.

| SMILES | IC50 |
| --- | --- |
| O=C(O)c1[nH]nnc1Sc1ncc(-c2ccc(Cl)c(Cl)c2)s1 [Compound 3, 4-((5-(3,4-dichlorophenyl)thiazol-2-yl)thio)-1H-1,2,3-triazole-5-carboxylic acid] | < 0.1 µM |
| O=C(O)c1[nH]nnc1Sc1ccc(-c2ccc(Cl)cc2)cc1 [Compound 5, 4-((4′-chloro-[1,1′-biphenyl]-4-yl)thio)-1H-1,2,3-triazole-5-carboxylic acid] | < 0.1 µM |
| O=C(O)c1[nH]nnc1Sc1csc(-c2ccc(Cl)c(Cl)c2)n1 [Compound 8, 4-((2-(3,4-dichlorophenyl)thiazol-4-yl)thio)-1H-1,2,3-triazole-5-carboxylic acid] | < 0.1 µM |
| O=C(OC1CCC1)c1[nH]nnc1Sc1nc(-c2ccc(Cl)c(Cl)c2)cs1 [Compound 9, cyclobutyl 4-((4-(3,4-dichlorophenyl)thiazol-2-yl)thio)-1H-1,2,3-triazole-5-carboxylate] | > 10 µM |
| CN1CCN(c2ccc(Sc3nn[nH]c3C(=O)O)cc2)CC1 [Compound 10, 4-((4-(4-methylpiperazin-1-yl)phenyl)thio)-1H-1,2,3-triazole-5-carboxylic acid] | 1 to 10 µM |
| CC(C)OC(=O)c1[nH]nnc1Sc1nc(-c2ccc(Cl)c(Cl)c2)cs1 [Compound 11, isopropyl 4-((4-(3,4-dichlorophenyl)thiazol-2-yl)thio)-1H-1,2,3-triazole-5-carboxylate] | > 10 µM |
| O=C(O)c1[nH]nnc1Sc1ccc(-c2ccc(Br)cc2)cn1 [Compound 12, 4-((5-(4-bromophenyl)pyridin-2-yl)thio)-1H-1,2,3-triazole-5-carboxylic acid 2,2,2-trifluoroacetate] | 0.1 to 1 µM |
| COc1ccc(-c2ccc(Sc3nn[nH]c3C(=O)O)cc2)cc1 [Compound 14, 4-((4′-methoxy-[1,1′-biphenyl]-4-yl)thio)-1H-1,2,3-triazole-5-carboxylic acid] | < 0.1 µM |
| O=C(O)c1[nH]nnc1Sc1ccc(-c2ccc(OC(F)(F)F)cc2)cc1 [Compound 16, 4-((4′-(trifluoromethoxy)-[1,1′-biphenyl]-4-yl)thio)-1H-1,2,3-triazole-5-carboxylic acid] | < 0.1 µM |
| COC(=O)c1[nH]nnc1Sc1nc(-c2ccc(Cl)c(Cl)c2)cs1 [Compound 17, methyl 4-((4-(3,4-dichlorophenyl)thiazol-2-yl)thio)-1H-1,2,3-triazole-5-carboxylate] | > 10 µM |
| O=C(OC1CC1)c1[nH]nnc1Sc1nc(-c2ccc(Cl)c(Cl)c2)cs1 [Compound 19, cyclopropyl 4-((4-(3,4-dichlorophenyl)thiazol-2-yl)thio)-1H-1,2,3-triazole-5-carboxylate] | > 10 µM |
| O=C(O)c1[nH]nnc1Sc1cccc(-c2ccc(Cl)c(Cl)c2)n1 [Compound 20, 4-((6-(3,4-dichlorophenyl)pyridin-2-yl)thio)-1H-1,2,3-triazole-5-carboxylic acid] | < 0.1 µM |
| O=C(O)c1[nH]nnc1Sc1ccc(-c2ccc(Cl)c(Cl)c2)cc1 [Compound 21, 4-((3′,4′-dichloro-[1,1′-biphenyl]-4-yl)thio)-1H-1,2,3-triazole-5-carboxylic acid] | < 0.1 µM |
| O=C(O)c1[nH]nnc1Sc1ccc(-c2ccc(Cl)cc2Cl)cc1 [Compound 22, 4-((2′,4′-dichloro-[1,1′-biphenyl]-4-yl)thio)-1H-1,2,3-triazole-5-carboxylic acid] | < 0.1 µM |
| COc1cc(-c2nc(Sc3nn[nH]c3C(=O)O)cs2)ccc1Cl [Compound 23, 4-((2-(4-chloro-3-methoxyphenyl)thiazol-4-yl)thio)-1H-1,2,3-triazole-5-carboxylic acid] | < 0.1 µM |
| COc1ccc(Cn2nnc(C(=O)O)c2Sc2csc(-c3ccc(OC)c(Cl)c3)n2)cc1 [Compound 25-1, 5-((2-(3-chloro-4-methoxyphenyl)thiazol-4-yl)thio)-1-(4-methoxybenzyl)-1H-1,2,3-triazole-4-carboxylic acid] | > 10 µM |
| CC(C)Oc1ccc(-c2nc(Sc3nn[nH]c3C(=O)O)cs2)cc1Cl [Compound 27, 4-((2-(3-chloro-4-isopropoxyphenyl)thiazol-4-yl)thio)-1H-1,2,3-triazole-5-carboxylic acid] | < 0.1 µM |
| CCOc1ccc2sc(Sc3nn[nH]c3C(=O)O)nc2c1 [Compound 29, 4-((5-ethoxybenzo[d]thiazol-2-yl)thio)-1H-1,2,3-triazole-5-carboxylic acid] | 0.1 to 1 µM |
| O=C(O)c1[nH]nnc1Sc1ccc(-c2ccc(Cl)c(OC(F)(F)F)c2)cc1 [Compound 30, 4-((4′-chloro-3′-(trifluoromethoxy)-[1,1′-biphenyl]-4-yl)thio)-1H-1,2,3-triazole-5-carboxylic acid] | < 0.1 µM |
| O=C(O)c1[nH]nnc1Sc1ccc(-c2cccc(OC(F)(F)F)c2Cl)cc1 [Compound 31, 4-((2′-chloro-3′-(trifluoromethoxy)-[1,1′-biphenyl]-4-yl)thio)-1H-1,2,3-triazole-5-carboxylic acid] | < 0.1 µM |

The remaining lines, values ahead:

| IC50 | SMILES |
| --- | --- |
| < 0.1 µM | O=C(O)c1[nH]nnc1Sc1nc(-c2ccc(Cl)c(Cl)c2)cs1 [Compound 2, 4-((4-(3,4-dichlorophenyl)thiazol-2-yl)thio)-1H-1,2,3-triazole-5-carboxylic acid] |
| > 10 µM | CN1CCN(c2cccc(Sc3[nH]nnc3C(=O)O)c2)CC1 [Compound 6, 5-((3-(4-methylpiperazin-1-yl)phenyl)thio)-1H-1,2,3-triazole-4-carboxylic acid 2,2,2-trifluoroacetate] |
| 0.1 to 1 µM | O=C(O)c1[nH]nnc1Sc1ccc(N2CCCCC2)cc1 [Compound 7, 4-((4-(piperidin-1-yl)phenyl)thio)-1H-1,2,3-triazole-5-carboxylic acid 2,2,2-trifluoroacetate] |
| 0.1 to 1 µM | O=C(O)c1[nH]nnc1Sc1nnc(-c2ccc(Cl)c(Cl)c2)[nH]1 [Compound 13, 4-((5-(3,4-dichlorophenyl)-4H-1,2,4-triazol-3-yl)thio)-1H-1,2,3-triazole-5-carboxylic acid] |
| < 0.1 µM | COc1ccc(-c2csc(Sc3nn[nH]c3C(=O)O)n2)cc1Cl [Compound 15, 4-((4-(3-chloro-4-methoxyphenyl)thiazol-2-yl)thio)-1H-1,2,3-triazole-5-carboxylic acid] |
| < 0.1 µM | O=C(O)c1[nH]nnc1Sc1nc(-c2ccc(OC3CC3)c(Cl)c2)cs1 [Compound 18, 4-((4-(3-chloro-4-cyclopropoxyphenyl)thiazol-2-yl)thio)-1H-1,2,3-triazole-5-carboxylic acid] |
| < 0.1 µM | CC(C)Oc1cc(-c2nc(Sc3nn[nH]c3C(=O)O)cs2)ccc1Cl [Compound 24, 4-((2-(4-chloro-3-isopropoxyphenyl)thiazol-4-yl)thio)-1H-1,2,3-triazole-5-carboxylic acid] |
| < 0.1 µM | COc1ccc(-c2nc(Sc3nn[nH]c3C(=O)O)cs2)cc1Cl [Compound 25-2, 4-((2-(3-chloro-4-methoxyphenyl)thiazol-4-yl)thio)-1H-1,2,3-triazole-5-carboxylic acid] |
| < 0.1 µM | O=C(O)c1[nH]nnc1Sc1csc(-c2ccc(Cl)cc2Cl)n1 [Compound 26, 4-((2-(2,4-dichlorophenyl)thiazol-4-yl)thio)-1H-1,2,3-triazole-5-carboxylic acid] |
| 1 to 10 µM | Cn1c(Sc2nn[nH]c2C(=O)O)nnc1-c1ccc(Cl)c(Cl)c1 [Compound 28, 4-((5-(3,4-dichlorophenyl)-4-methyl-4H-1,2,4-triazol-3-yl)thio)-1H-1,2,3-triazole-5-carboxylic acid 2,2,2-trifluoroacetate] |

same assay, conditions: Table 4; read-out: Range (range of IC50 values calculated from the enzymatic assays)

| IC50 | SMILES |
| --- | --- |
| < 0.1 µM | CCCC(O)(CC)Cn1ccc(-c2ccc([C@H]3CC[C@H](Oc4nn[nH]c4C(=O)O)CC3)cc2)n1 (relative stereo) [Example 458, 4-(((trans)-4-(4-(1-(2-ethyl-2-hydroxypentyl)-1H-pyrazol-3-yl)phenyl)cyclohexyl)oxy)-1H-1,2,3-triazole-5-carboxylic acid] |
| < 0.1 µM | CCCC(O)(CC)Cn1nccc1-c1ccc([C@H]2CC[C@H](Oc3nn[nH]c3C(=O)O)CC2)cc1 (relative stereo) [Example 470, 4-(((trans)-4-(4-(1-(2-ethyl-2-hydroxypentyl)-1H-pyrazol-5-yl)phenyl)cyclohexyl)oxy)-1H-1,2,3-triazole-5-carboxylic acid] |
| < 0.1 µM | CCC(Cc1cc(-c2ccc([C@H]3CC[C@H](Oc4nn[nH]c4C(=O)O)CC3)cc2)[nH]n1)OC (relative stereo) [Example 475, 4-(((trans)-4-(4-(3-(2-methoxybutyl)-1H-pyrazol-5-yl)phenyl)cyclohexyl)oxy)-1H-1,2,3-triazole-5-carboxylic acid] |
| < 0.1 µM | O=C(O)c1[nH]nnc1O[C@H]1CC[C@H](c2ccc(-c3ccnn3[C@H]3CCCC[C@@H]3O)cc2)CC1 (relative stereo) [Example 476, 4-(((trans)-4-(4-(1-((1S,2S)-2-hydroxycyclohexyl)-1H-pyrazol-5-yl)phenyl)cyclohexyl)oxy)-1H-1,2,3-triazole-5-carboxylic acid] |
| < 0.1 µM | O=C(O)c1[nH]nnc1O[C@H]1CC[C@H](c2ccc(OC[C@H]3CCC[C@H](CO)C3)cc2)CC1 (relative stereo) [Example 483, 4-(((trans)-4-(4-(((trans)-3-(hydroxymethyl)cyclohexyl)methoxy)phenyl)cyclohexyl)oxy)-1H-1,2,3-triazole-5-carboxylic acid] |
